# Laboratory results reported in patent US6653258B1 (priority 1987, dated 2003).
# What was measured:
# Assay type in all cases: in vivo
# [1] = tested on: foliar fungal diseases of plants; design: key to disease control grading, […] (VINE): 4: no disease; 3: trace −5% of disease on untreated plants; key to disease control grading, PUCCINIA RECONDITA (WHEAT) / disease control grading, VENTURIA INAEQUALIS (APPLE) / disease control grading, CERCOSPORA ARACHIDICOLA (PEANUT) / disease control grading, PH[…] (TOMATO) / disease control grading, P[…] (RICE): 4: no disease; 3: trace −5% of disease on untreated plants; 6-25% of disease on untreated plants; 1: 26-59% of disease on untreated plants; 60-100% of disease on untreated plants; conditions: applied to soil (roots) and foliage one or two days before inoculation; for disease control grading, CERCOSPORA ARACHIDICOLA (PEANUT): Cercospora arachidicola on peanut; for disease control grading, P[…] (RICE): P[…] on rice; for disease control grading, PH[…] (TOMATO): Ph[…] on tomato; for disease control grading, PUCCINIA RECONDITA (WHEAT): Puccinia recondita on wheat; for disease control grading, VENTURIA INAEQUALIS (APPLE): Venturia inaequalis on apple; for disease control grading, […] (VINE): […] on vine
# [2] = tested on: Erysiphe graminis; assay: Foliar fungal disease test on Erysiphe graminis, plants inoculated 24 hours before treatment (Table V); design: key: 4: no disease; 3: trace −5% of disease on untreated plants; 6-25% of disease on untreated plants; 1: 26-59% of disease on untreated plants; 60-100% of disease on untreated plants; conditions: plants inoculated 24 hours before treatment
# [3] = tested on: various species of plant; assay: Plant growth regulating whole plant screen (Table VIII); conditions: Barley (BR, Atem); 4000 ppm (4 kg/ha) spray; assessed after 2-6 weeks
# Experimental: This Example illustrates the plant growth regulating properties of compounds 1, 23 and 68 of Table I when tested on a whole plant screen against various species of plant. The plant species are identified in Table VII with the leaf stage at which they are sprayed.
# A formulation of each chemical was applied at 4000 ppm (4 kg/ha in a 1000 l/ha field volume) using a tracksprayer and a SS8004E (Teejet) nozzle.
# After spraying the plants were grown in a glasshouse with 25° C. day/22° C. night temperature. Supplementary lighting was supplied when necessary to provide an average photoperiod of 16 hours (14 hours minimum).
# After 2-6 weeks in the glasshouse, depending on species and time of year, the plants were visually assessed for morphological characteristics against a control of plant sprayed with a blank formulation.
Compound,"disease control grading, CERCOSPORA ARACHIDICOLA (PEANUT) [1]","disease control grading, P[…] (RICE) [1]","disease control grading, PH[…] (TOMATO) [1]","disease control grading, PUCCINIA RECONDITA (WHEAT) [1]","disease control grading, VENTURIA INAEQUALIS (APPLE) [1]","disease control grading, […] (VINE) [1]","disease control grading, ERYSIPHE GRAMINIS (BARLEY) [2]",T = Tillering or side shooting [3]
CO/C=C(/C(=O)OC)c1ccccc1COc1cccnc1 [68 (Table I)],3 (trace −5% of disease on untreated plants),3 (trace −5% of disease on untreated plants),3 (trace −5% of disease on untreated plants),3 (trace −5% of disease on untreated plants),4,4,4,1 (1 = 10-30%)
CO/C=C(/C(=O)OC)c1ccccc1COc1ccc(Br)cc1 [159 (Table I)],4,0 (60-100% of disease on untreated plants),3 (trace −5% of disease on untreated plants),4,4,0 (60-100% of disease on untreated plants),3 (trace −5% of disease on untreated plants),–
CO/C=C(/C(=O)OC)c1ccccc1COc1cc(Cl)ccc1Cl [158 (Table I)],4,4,3 (trace −5% of disease on untreated plants),4,4,4,4,–
CO/C=C(/C(=O)OC)c1ccccc1COc1ccc(Cl)cc1Cl [43 (Table I)],4,4,4,4,4,4,4,–
CO/C=C(/C(=O)OC)c1ccccc1COc1cccc([N+](=O)[O-])c1 [161 (Table I)],3 (trace −5% of disease on untreated plants),0 (60-100% of disease on untreated plants),1 (26-59% of disease on untreated plants),3 (trace −5% of disease on untreated plants),4,4,3 (trace −5% of disease on untreated plants),–
CO/C=C(/C(=O)OC)c1ccccc1COc1cccc(/C=N/c2ccccc2)c1 [179 (Table I)],0 (60-100% of disease on untreated plants),2 (6-25% of disease on untreated plants),4,3 (trace −5% of disease on untreated plants),0 (60-100% of disease on untreated plants),4,0 (60-100% of disease on untreated plants),–
CO/C=C(/C(=O)OC)c1ccccc1COc1cccc(Oc2ccccc2Cl)c1 [182 (Table I)],4,4,4,4,3 (trace −5% of disease on untreated plants),4,4,–
CO/C=C(/C(=O)OC)c1ccccc1COc1cc(Cl)cc(OC)c1 [167 (Table I)],3 (trace −5% of disease on untreated plants),4,4,4,4,4,4,–
CO/C=C(/C(=O)OC)c1ccccc1COc1cc(Cl)cc(Cl)c1 [162 (Table I)],4,2 (6-25% of disease on untreated plants),3 (trace −5% of disease on untreated plants),4,4,4,4,–
CO/C=C(/C(=O)OC)c1ccccc1COc1ccccc1Cl [157 (Table I)],4,4,3 (trace −5% of disease on untreated plants),4,4,4,4,–
CO/C=C(/C(=O)OC)c1ccccc1COc1ccc(Cl)c(Cl)c1 [45 (Table I)],4,4,4,4,4,4,3 (trace −5% of disease on untreated plants),–
CO/C=C(/C(=O)OC)c1ccccc1COc1ccccc1Br [24 (Table I)],4,4,4,4,4,4,4,–
CO/C=C(/C(=O)OC)c1ccccc1COc1cccc(-c2cccc(OC)c2)c1 [172 (Table I)],4,0 (60-100% of disease on untreated plants),4,4,4,4,4,–
CO/C=C(/C(=O)OC)c1ccccc1COc1cccc(N)c1 [34 (Table I)],0 (60-100% of disease on untreated plants),0 (60-100% of disease on untreated plants),4,3 (trace −5% of disease on untreated plants),3 (trace −5% of disease on untreated plants),4,0 (60-100% of disease on untreated plants),–
CO/C=C(/C(=O)OC)c1ccccc1COc1cccc(C=O)c1 [175 (Table I)],1 (26-59% of disease on untreated plants),0 (60-100% of disease on untreated plants),4,3 (trace −5% of disease on untreated plants),4,4,1 (26-59% of disease on untreated plants),–
CO/C=C(/C(=O)OC)c1ccccc1COc1ccc2ccccc2n1 [149 (Table I)],–,4,4,4,4,4,4,–
CCOc1cc(OCc2ccccc2/C(=C\OC)C(=O)OC)ccc1OC [170 (Table I)],4,3 (trace −5% of disease on untreated plants),4,0 (60-100% of disease on untreated plants),4,4,4,–
CO/C=C(/C(=O)OC)c1ccccc1COc1ccccc1[N+](=O)[O-] [33 (Table I)],4,4,3 (trace −5% of disease on untreated plants),4,4,4,2 (6-25% of disease on untreated plants),–
